target: Mitogen-activated protein kinase 14 (Homo sapiens, UniProt Q16539); test: Homogeneous Time-Resolved Fluorescence (HTRF) Enzyme Assay; details: pH 7; 22 °C
Protocol: The HTRF signal is calculated as a ratio of the A-counts to B-counts. The signal produced is proportional to the amount of JNK3 or p38 kinase activity present during the kinase reaction phase.

Sequence of Mitogen-activated protein kinase 14 (Q16539 whole entry): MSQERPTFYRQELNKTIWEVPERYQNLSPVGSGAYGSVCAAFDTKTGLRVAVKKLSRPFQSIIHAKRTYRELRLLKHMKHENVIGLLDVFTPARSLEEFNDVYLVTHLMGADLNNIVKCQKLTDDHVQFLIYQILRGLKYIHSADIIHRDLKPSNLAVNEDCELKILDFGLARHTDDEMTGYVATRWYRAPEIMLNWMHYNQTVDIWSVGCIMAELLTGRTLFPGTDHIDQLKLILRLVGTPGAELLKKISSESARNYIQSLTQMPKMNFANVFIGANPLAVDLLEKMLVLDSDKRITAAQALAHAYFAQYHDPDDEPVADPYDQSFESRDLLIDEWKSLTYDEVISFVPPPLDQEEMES

IC50 [nM] | SMILES
> 40000 | Oc1ccc(-c2cnc3ccc4ccncc4c3c2)cc1 [4-(2,7-phenanthrolin-9-yl)phenol]
0.078 | CCCn1c(C2CCN(C)CC2)nc(-c2ccc(Cl)c(Cl)c2)c1-c1ccnc(NC2CC2)n1
4 | CCCn1c(C2CCNCC2)nc(-c2ccc(Cl)c(Cl)c2)c1-c1ccnc(NC2CCCCC2)n1

From BindingDB's records for doi:10.1016/S1074-5521(03)00159-5 (Merck Research Laboratories, 2003)
